From patent US20090291913A1, “FACTOR Xa INHIBITOR FORMULATION AND METHOD” (Bristol-Myers Squibb Company, priority 2005, published 2009)

How the values were obtained:
[1] = aqueous solubility as a function of pH; assay type: physicochemical
[2] = solubility in substituted-β-cyclodextrin solution as a function of pH; assay type: physicochemical
[3] = aqueous buffer, neutral form / free base, room temperature, pH 6.8

Row | SMILES | solubility [1, 3] | solubility on adjusting pH ([1]; pH adjusted within pH 3-11, needed level e.g. 2.5 mg/mL) | solubility ([1]; simulated gastric fluid, hydrochloride salt, normal gastric pH condition, pH of gastric medium ~1-2) | solubility in the substituted-β-cyclodextrins ([2]; pH 4.5 versus higher pH's up to 11) | solubility in substituted-β-cyclodextrin solution ([2]; pH lowered to between about 3 and about 4)
1 | COc1ccc(-n2nc(C(N)=O)c3c2C(=O)N(c2ccc(N4CCCCC4=O)cc2)CC3)cc1 [Apixaban, 1-(4-methoxyphenyl)-7-oxo-6-[4-(2-oxo-1-piperidinyl)phenyl]-4,5,6,7-tetrahydro-1H-pyrazolo [3,4-c]pyridine-3-carboxamide] | < 1 µg/mL | – | – | – | –
2 | CN(C)Cc1nccn1-c1ccc(NC(=O)c2cc(C(F)(F)F)nn2-c2ccc3onc(N)c3c2)c(F)c1.Cl [razaxaban] | < 1 µg/mL | could not be increased to the needed level | ~3000 µg/mL | same solubility | increase in solubility
